Several values for one entry are separate records, joined by “and”; a condition that tells them apart may be missing. Identical values can stand only once.
How the values were obtained:
[1] = tested on: nematode; conditions: comparison figure; cited from earlier work
[2] = Abamectin or liposomal abamectin applied to soil prior to planting: gall formation, root necrosis, root length; type: in vivo
Procedure: Abamectin at 5μg or 1μg was directly applied to soil prior to planting. Alternatively abamectin was loaded into liposomes at either 5μg or 1 μg and applied to soil prior to planting. Gall formation was detected. […] Therefore, liposomal abamectin formulations enhance root length as compared to non-liposomal abamectin formulations.

[3] = tested on: root-knot nematodes; assay: Nematicidal activity of Oxamyl-liposome formulation on root-knot nematodes; type: in vivo, M. incognita; conditions: where oxamyl was added (oxamyl-liposome test, FIG. 1)
Procedure: Liposomes having an aqueous core and phospholipid bilayers were prepared using the thin-film dehydration-rehydration method obtaining, multilamilar vesicles (MLVs) and small unilamellar vesicles (SUVs) (Bangham et al., J. Mol. Biol. 13:238-252 (1965); Gosangari & Watkin, Pharm Dev Technol. 17:383-8 (2012)). Using thin-film hydration method, briefly, required amounts of lipids [1,2-Dipalmitoyl-sn-glycero-3-phosphocholine (DPPC) liposomes and 1, 2-distearoyl-snglycero- 3-phosphocholine (DSPC)] were dissolved in chloroform, and a thin film will be formed on the inner side of the round bottom flask, by evaporating the solvent under vacuum using a rotavapor. The lipid film formed was stored overnight in vacuum desiccator to eliminate traces of chloroform. The film was then hydrated at 58° C., above the Tc of DSPC, using 10 mL of phosphate-buffered saline (PBS, 20 mM […], 150 mM NaCl, pH 7.0) containing different concentration of Oxamyl. […] The unencapsulated oxamyl was then separated using Sephadex G-50 macrospin columns and the encapsulation efficiency was calculated spectrophotometrically at 280 nm. […]
M. incognita eggs collected from tomato cultures by NaOC1 extraction (Hussey & Barker, Plant Disease Reporter. 57:1025-1028 (1973)). […] The juveniles (J2) were counted and evaluated for activity/mobility for the duration of the study. […]

[4] = tested on: Root-Knot larvae (J2); assay: Effect of nematicides (Oxamyl, Thiodicarb) on Root-Knot larvae (J2) in vitro; design: species or system M. incognita; conditions: for Root-Knot larvae (J2) Alive, non-mobile: alive larvae given as non-mobile; for Root-Knot larvae (J2) Alive, non-mobile / Root-Knot larvae (J2) Dead / Root-Knot larvae (J2) Alive: 2 days; for Root-Knot larvae (J2) Dead / Root-Knot larvae (J2) Alive: room temperature, one replicate per line
Procedure: M. incognita eggs collected from tomato cultures by NaOC1 extraction (Hussey and Barker, 1973). Briefly, six to twelve week old infected tomato roots were cut into 1-2 segment. Root segments were shacked vigorously in 200 ml of a 0.5% Na O Cl solution for 4 min. Then, the Na O Cl solution was passed quickly through a 200-mesh (75-μm), nested over a 500-mesh sieve to collect freed eggs. The a 500-mesh sieve with eggs was quickly placed under a stream of cold water to remove residual Na O cl and rinsed several times. About 50 ml queous suspension of eggs was collected and number of eggs per unit volume will be counted. The egg suspension was allowed to sit at room temperature for 4 days. The hatching juveniles were collected and used in the subsequent experiments.
Determine the efficient concentration of nematicides (Oxamyl and Thidiocarb) that kill or suppress Root-Knot Larvae.
M. incognita eggs collected from tomato cultures by NaOC1 extraction (Hussey & Barker, Plant Disease Reporter. 57:1025-1028 (1973)). Egg suspension was incubated at room temperature until larvae were hatched (4-5 days). The juveniles (J2) were counted and evaluated for activity/mobility for the duration of the study. Four different concentrations of both nematicides (Oxamyl and Thiodicarb) were used to assess their efficacy in killing the nematodes. These were untreated control, 200 ug, 1 mg, 2 mg, and 10 mg. Three replicates of the each concentration were mixed with J2 suspensions and incubated at room temperature for 2 days.
We studied the efficiency of Oxamyl; 200 ug/ml and 100 ug/ml in suppression of J2. […] We used 100 ug of Oxamyl in subsequent studies with liposomes.

[5] = tested on: citrus nematode; conditions: 0.5 hour exposure, same concentration; cited from earlier work
[6] = tested on: free living nematodes in soil; conditions: 24 hour exposure; cited from earlier work

In the case of abamectin [non-liposomal abamectin], the “amount of abamectin needed to treat nematodes when not encapsulated by liposomes” value [1] is listed as “about 2982 mg/acre”, the gall formation ([2]; 1 μg applied to soil prior to planting, FIG. 3) is listed as “most gall formulation” and the root necrosis ([2]; 5 μg applied to soil prior to planting, FIG. 4) is listed as “most root necrosis”.
For CNC(=O)O/N=C(\SC)C(=O)N(C)C [Oxamyl (Vydate), Methyl N′N′-dimethyl-N-[(methylcarbamoyl)oxy]-1-thiooxamimidate], the state of larvae [3] was “dead or paralyzed”, the “Root-Knot larvae (J2) Alive, non-mobile” value ([4]; 200 ug) was 60 non-mobile and 58 non-mobile and 50 non-mobile and the “Root-Knot larvae (J2) Dead” value ([4]; 200 ug) was 40 and 42 and 50. The “Root-Knot larvae (J2) Alive” value ([4]; 1 mg) was 0, the “Root-Knot larvae (J2) Dead” value ([4]; 1 mg) was 100 and the “Root-Knot larvae (J2) Alive” value ([4]; 2 mg) was 0. For the same compound, the “Root-Knot larvae (J2) Dead” value ([4]; 2 mg) was 100, the “Root-Knot larvae (J2) Alive” value ([4]; 10 mg) was 0 and the “Root-Knot larvae (J2) Dead” value ([4]; 10 mg) was 100. The mortality at 100 µg/mL ([4]; Meloidogyne incognita, 100 ug/ml) was 100% and the mortality at 200 µg/mL ([4]; Meloidogyne incognita, 200 ug/ml) was 100%.
With CS/C(C)=N\OC(=O)N(C)SN(C)C(=O)O/N=C(\C)SC [Larvin (Thiodicarb), Thiodicarb] the “Root-Knot larvae (J2) Alive” value ([4]; 200 ug) was 76 and 86 and 89, the “Root-Knot larvae (J2) Dead” value ([4]; 200 ug) was 23 and 14 and 11 and the “Root-Knot larvae (J2) Alive” value ([4]; 1 mg) was 75 and 82 and 63. For the same compound, the “Root-Knot larvae (J2) Dead” value ([4]; 1 mg) was 25 and 18 and 37, the “Root-Knot larvae (J2) Alive” value ([4]; 2 mg) was 70 and 85 and 65 and the “Root-Knot larvae (J2) Dead” value ([4]; 2 mg) was 30 and 15 and 35. The “Root-Knot larvae (J2) Alive, non-mobile” value ([4]; 10 mg) was 70 non-mobile and 80 non-mobile, the “Root-Knot larvae (J2) Dead” value ([4]; 10 mg) was 30 (2×) and 20 and the “concentration required to kill Root-Knot (J2)” value ([4]; compared with Oxamyl, reason for elimination) was “required higher concentration to kill Root-Knot (J2)”.
For BrCCBr [EDB, ethylene dibromide], the survival [5] is listed as “did not survive” and the population killed [6] is listed as 75%.

— US20160270400A1, “Liposome-Attractant Formulations” (priority 2013, published 2016)
